How the values were obtained:
[1] = xn = mol fraction of the nth substance listed; conditions: Ring tensiometer
[2] = Ring tensiometer

OCCO [1,2-ethanediol] + CCO
surface tension liquid-gas [mN/m], [1]
Conditions	293.15 K	298.15 K	303.15 K	308.15 K	313.15 K	318.15 K	323.15 K
x2 = 0	48.9	48.6	48.1	47.5	47.1	46.4	45.9
x2 = 0.1	42	41.8	41.4	41.2	41	40.6	39.8
x2 = 0.3	32.9	32.7	32.2	31.6	31.1	30.8	30.7
x2 = 0.5	28.5	28.3	27.8	27.4	27	26.7	26.5
x2 = 0.6	26.9	26.4	26.1	25.8	25.4	25	24.8
x2 = 0.7	25	24.9	24.7	24.4	24	23.6	23.2
x2 = 0.9	23.1	22.68	22.33	22.05	21.8	21.55	21.1

OCCO [1,2-ethanediol]
[2]
Conditions	surface tension liquid-gas [mN/m]
293.15 K	48.9
298.15 K	48.6
303.15 K	48.1
308.15 K	47.5
313.15 K	47.1
318.15 K	46.4
323.15 K	45.9

CCO [ethanol] + OCCO
[1], x1 = 1
Conditions	surface tension liquid-gas [mN/m]
293.15 K	22.3
298.15 K	21.8
303.15 K	21.4
308.15 K	21.1
313.15 K	20.8
318.15 K	20.5
323.15 K	20

CCO [ethanol]
[2]
Conditions	surface tension liquid-gas [mN/m]
293.15 K	22.3
298.15 K	21.8
303.15 K	21.4
308.15 K	21.1
313.15 K	20.8
318.15 K	20.5
323.15 K	20

Reference: the NIST ThermoML archive (doi:10.1021/je025639s)
